# Values joined by “and” are separate entries in the source; they are usually repeats but may differ in a detail not shown here. Identical values can stand only once.
# Experiments:
# [1] = cited from earlier work
# [2] = Stability at 50° C., potency by HPLC (% EP remaining); format: physicochemical; conditions: for % EP remaining, 2 wk / % EP remaining, 4 wk / % EP remaining, 8 wk: sealed glass vials, control: desiccated at 4° C. (100% assumed potency); for % EP remaining, 2 wk: 20160 min; for % EP remaining, 4 wk: 40320 min; for % EP remaining, 8 wk: 80640 min
# Protocol: a. Crystalline etoposide 4'-phosphate diethanolate prepared as described above. b. Crystalline etoposide 4'-phosphate (unsolvated) was prepared by the following procedure. Etoposide 4'-phosphate (300 mg) in ethanol (175 ml) was heated with stirring at 70° C. to obtain a clear solution. The solution was filtered and the filtrate heated at 70° C. until the volume was reduced to ca. 34 ml. A portion of the solution (ca. 17 ml) was placed in a vial, and seeded with a small amount of needle-shaped etoposide 4'-phosphate crystals previously obtained. The solution was placed in freezer at -12° C. for 4 days and the resulting needle-shaped crystals were harvested as white fluffy material. NMR analysis of this material indicated ethanol content of ca. 1.6% w/w. […]
# c. amorphous disodium etoposide 4'-phosphate prepared as described in U.S. Pat. No. 4,904,768. d. amorphous etoposide 4'-phosphate was obtained by dissolving crystalline etoposide 4'-phosphate diethanolate (125 mg) in methanol (50 ml), evaporating the solution to dryness on a rotary evaporator, and drying the residue at 25° C. under vacuum for 1 hour.
# Accurately weighed samples of the test materials were placed in Type I flint glass vials and sealed with Teflon-coated stoppers and aluminum caps. The vials were stored at 50° C. The potency of these samples was determined at 2,4 and 8 weeks by HPLC. Samples stored desiccated at 4° C. served as controls (100% assumed potency).
# Column: Jones Apex Octadecyl, 5μ, 150×4.6 mm
# Mobile phase A: 0.02M ammonium phosphate (mono-basic) in Milli-Q water (pH ~4.5): Acetonitrile (85:15) Mobile phase B: Acetonitrile
# Gradient: 0-3 minutes isocratic at 0% B; 3-18 mins--linear gradient 0 to 30% B; 18-23 mins--isocratic at 30% B; 23-25 mins--linear gradient 30 to 0% B; 25-30 mins--re-equilibrate at 100% A (i.e. 0% B) […]
# Sample diluent: Mobile phase A
# Inj. volume: 20 microliters
# Retention times: Etoposide 4'-phosphate--5.4 mins; lignan P--11.5 mins; etoposide--17.5 mins Peak area for etoposide 4'-phosphate was linearly correlated with concentration in the range 0.05-0.20 mg/mL (correlation coefficient=0.9999).
# The results of the above-described stability test are given in the following Table in which the term "EP" represents etoposide 4'-phosphate.
# [3] = relative to etoposide; cited from earlier work
# [4] = previously disclosed fluffy, amorphous forms; cited from earlier work
Compound,water solubility [1],"% EP remaining, 2 wk [2] [%]","% EP remaining, 4 wk [2]","% EP remaining, 8 wk [2]",stability versus other forms of etoposide 4'-phosphate [2],loss of potency over a 8-week period ([2]; 8-week period),activity in in vivo antitumor assays [3],decomposition upon storage [4]
"COc1cc([C@@H]2c3cc4c(cc3[C@@H](O[C@@H]3O[C@@H]5CO[C@@H](C)O[C@H]5[C@H](O)[C@H]3O)[C@H]3COC(=O)[C@H]23)OCO4)cc(OC)c1OP(=O)(O)O [Amorphous EP 2Na, disodium etoposide 4'-phosphate]",≥ 100 mg/mL,85.5,69.3%,61.6%,,,,
"COc1cc([C@@H]2c3cc4c(cc3[C@@H](O[C@@H]3O[C@@H]5CO[C@@H](C)O[C@H]5[C@H](O)[C@H]3O)[C@H]3COC(=O)[C@H]23)OCO4)cc(OC)c1OP(=O)(O)O [Amorphous EP, etoposide 4'-phosphate]",,65.8,54.1%,46.7%,,,,
"COc1cc([C@@H]2c3cc4c(cc3[C@@H](O[C@@H]3O[C@@H]5CO[C@@H](C)O[C@H]5[C@H](O)[C@H]3O)[C@H]3COC(=O)[C@H]23)OCO4)cc(OC)c1OP(=O)(O)O [Crystalline EP 2EtOH, etoposide 4'-phosphate diethanolate]",,100,98.4% and 100%,97.5% and 99.3%,superior stability,very little loss of potency,,
"COc1cc([C@@H]2c3cc4c(cc3[C@@H](O[C@@H]3O[C@@H]5CO[C@@H](C)O[C@H]5[C@H](O)[C@H]3O)[C@H]3COC(=O)[C@H]23)OCO4)cc(OC)c1OP(=O)(O)O [Crystalline EP, etoposide 4'-phosphate]",,93.3,87.9%,85.1%,,,,
"COc1cc([C@@H]2c3cc4c(cc3[C@@H](O[C@@H]3O[C@@H]5CO[C@@H](C)O[C@H]5[C@H](O)[C@H]3O)[C@H]3COC(=O)[C@H]23)OCO4)cc(OC)c1OP(=O)(O)O [Etoposide 4'-phosphate (I), Etoposide 4'-phosphate]",≥ 100 mg/mL,,,,,,as active as etoposide,tend to decompose upon storage
COc1cc([C@@H]2c3cc4c(cc3[C@@H](O[C@@H]3O[C@@H]5CO[C@@H](C)O[C@H]5[C@H](O)[C@H]3O)[C@H]3COC(=O)[C@H]23)OCO4)cc(OC)c1O [Etoposide],about 0.1 mg/ml,,,,,,,
